The test system of this data set is human maximum recommended daily dose, FDA database. Kind of data set: DSSTox (FDAMDD) FDA Maximum (Recommended) Daily Dose Database. To be noted: stronger effect = lower value. In a few lines:
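MRDD values come from clinical trials with daily oral dosing, usually for 3–12 months, for the average adult, in mg/day converted to mg/kg-bw/day assuming 60 kg. Antineoplastic mg/m2 doses are divided by 37. Activity score maps log10(1/MRDD mmol) onto 1–100.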

Where [1] appears, read: TherapeuticCategory: analgesic, antipyretic, anti inflammatory.
[2] abbreviates: TherapeuticCategory: antidiabetic.
Where [3] appears, read: TherapeuticCategory: antimalarial.
The mark [4] stands for this setting: TherapeuticCategory: antihypertensive.
Setting [5] is: TherapeuticCategory: anticholinergic.
The mark [6] stands for this setting: TherapeuticCategory: anti inflammatory.
Setting [7] is: TherapeuticCategory: antibacterial.
Setting [8] is: TherapeuticCategory: sedative, hypnotic.
[9] abbreviates: TherapeuticCategory: antineoplastic.
Where [10] appears, read: TherapeuticCategory: diuretic, antihypertensive.

We go through 70 molecules from PubChem BioAssay AID1195 (EPA DSSTox, 2008).

As for `CCO[C@@H]1O[C@H](C(COCc2ccccc2)OCc2ccccc2)[C@H](OCc2ccccc2)[C@H]1O` (stereo not given in full), the maximum recommended daily dose (mmol/kg-bw/day) (TherapeuticCategory: sclerosing agent) is 0.0278.

On to `CC(C)n1c(/C=C/[C@@H](O)C[C@@H](O)CC(=O)O)c(-c2ccc(F)cc2)c2ccccc21`, for which the maximum recommended daily dose (mmol/kg-bw/day) (TherapeuticCategory: antihyperlipoproteinemic) is 0.00162.

On to `CC(=O)Nc1ccc(OC(=O)c2ccccc2OC(C)=O)cc1`, for which the maximum recommended daily dose (mmol/kg-bw/day) under setting [1] is 0.425.

In the case of `COc1ccc2c(c1)C(=O)N(CCc1ccc(S(=O)(=O)NC(=O)NC3CCCCC3)cc1)C(=O)C2(C)C`, the maximum recommended daily dose (mmol/kg-bw/day) under setting [2] is 0.0019.

Consider `OC[C@@]1(O)OC[C@@H](O)[C@@H](O)[C@@H]1O`, for which, under “TherapeuticCategory: fluid and nutrient replenisher, ferric form as hematinic”, the maximum recommended daily dose (mmol/kg-bw/day) was 2.31.

On to `OC1C(O)C(O)C(O)C(O)C1O` (stereo not given), for which the maximum recommended daily dose (mmol/kg-bw/day) (TherapeuticCategory: vitamin B complex, lipotropic) is 0.555.

Take `C=CCN1C[C@H](C(=O)N(CCCN(C)C)C(=O)NCC)C[C@@H]2c3cccc4[nH]cc(c34)C[C@H]21`: under “TherapeuticCategory: antidyskinetic, prolactin inhibitor, antiparkinsonian, dopamine receptor antagonist”, the maximum recommended daily dose (mmol/kg-bw/day) was 4.43e-05.

As for `COCCOc1cnc(NS(=O)(=O)c2ccccc2)nc1`, the maximum recommended daily dose (mmol/kg-bw/day) under setting [2] is 0.108.

In the case of `BrC(Br)Br`, the maximum recommended daily dose (mmol/kg-bw/day) (TherapeuticCategory: sedative, hypnotic, antitussive) was 0.0989.

As to `COCC(=O)O[C@]1(CCN(C)CCCc2nc3ccccc3[nH]2)CCc2cc(F)ccc2[C@@H]1C(C)C`, the maximum recommended daily dose (mmol/kg-bw/day) (TherapeuticCategory: antihypertensive, Ca channel blocker) is 0.00337.

For the molecule `CCC(C)C(CC)C(=O)NC(N)=O` (stereo not given), the maximum recommended daily dose (mmol/kg-bw/day) (TherapeuticCategory: hypnotic) was 0.0358.

Turning to `COc1cc(NC(C)CCCN)c2ncccc2c1` (stereo not given), the maximum recommended daily dose (mmol/kg-bw/day) under setting [3] was 0.00289.

Regarding `c1ccc(CN(CC2=NCCN2)c2ccccc2)cc1`, the maximum recommended daily dose (mmol/kg-bw/day) (TherapeuticCategory: antihistaminic) was 0.0188.

Consider `COc1ccc(C[C@@H](C)NC[C@H](O)c2ccc(O)c(NC=O)c2)cc1`, for which the maximum recommended daily dose (mmol/kg-bw/day) (TherapeuticCategory: antiasthmatic) is 0.00775.

Turning to `C[C@H](N)Cc1ccccc1`, the maximum recommended daily dose (mmol/kg-bw/day) (TherapeuticCategory: CNS stimulant, anorexic) is 0.0074.

`CCOC(=O)Oc1c(OC)cc(C(=O)O[C@@H]2C[C@@H]3CN4CCc5c([nH]c6cc(OC)ccc56)[C@H]4C[C@@H]3[C@H](C(=O)OC)[C@H]2OC)cc1OC`: under setting [4], the maximum recommended daily dose (mmol/kg-bw/day) was 7.5e-05.

Consider `NS(=O)(=O)c1cc(Cl)c(Cl)c(S(N)(=O)=O)c1`, for which the maximum recommended daily dose (mmol/kg-bw/day) (TherapeuticCategory: carbonic anhydrase inhibitor) is 0.0109.

For the molecule `CC(=O)Oc1ccc(C(=C2CCCCC2)c2ccc(OC(C)=O)cc2)cc1`, under “TherapeuticCategory: gonad stimulating”, the maximum recommended daily dose (mmol/kg-bw/day) is 0.0183.

`CC(=O)OCC(=O)[C@@]1(OC(=O)c2ccco2)[C@H](C)C[C@H]2[C@@H]3CCC4=CC(=O)C=C[C@]4(C)[C@@]3(F)[C@@H](O)C[C@@]21C`: the maximum recommended daily dose (mmol/kg-bw/day) (TherapeuticCategory: glucocorticoid, anti inflammatory) was 0.000284.

Turning to `CCC1(C)OC(=O)N(C)C1=O` (stereo not given), the maximum recommended daily dose (mmol/kg-bw/day) (TherapeuticCategory: anticonvulsant) is 0.255.

As to `C#C[C@]1(OC(C)=O)CC[C@H]2[C@@H]3CCC4=CC(=O)CC[C@@H]4[C@H]3CC[C@@]21C`, the maximum recommended daily dose (mmol/kg-bw/day) (TherapeuticCategory: progestogen) was 4.91e-05.

Regarding `CC(C)(N)Cc1ccccc1`, the maximum recommended daily dose (mmol/kg-bw/day) (TherapeuticCategory: anorexic) was 0.00419.

For the molecule `CCN(CC)CCOC(=O)C1(C2CCCCC2)CCCCC1`, the maximum recommended daily dose (mmol/kg-bw/day) under setting [5] is 0.0043.

For `C[C@]12CCC(=O)C=C1C=C[C@@H]1[C@@H]2CC[C@@]2(C)[C@H]1CC[C@@]2(O)CCC(=O)O`, for the setting “TherapeuticCategory: diuretic”, the maximum recommended daily dose (mmol/kg-bw/day) is 0.0371.

As to `O=C(O)c1cccnc1Nc1cccc(C(F)(F)F)c1`, the maximum recommended daily dose (mmol/kg-bw/day) under setting [6] is 0.0443.

Regarding `CC(=O)Oc1ccccc1C(=O)O`, the maximum recommended daily dose (mmol/kg-bw/day) under setting [1] was 0.37.

`O=C(O)C1CSCN1` (stereo not given): under “TherapeuticCategory: choleretic”, the maximum recommended daily dose (mmol/kg-bw/day) is 0.0751.

In the case of `NC(=S)N=Nc1ccc(NN=C(N)N)cc1`, the maximum recommended daily dose (mmol/kg-bw/day) under setting [7] was 0.000704.

Take `NC(=O)c1cc[n+](CC2=C(C(=O)[O-])N3C(=O)[C@@H](NC(=O)C(c4ccccc4)S(=O)(=O)O)[C@H]3SC2)cc1` (stereo not given in full): the maximum recommended daily dose (mmol/kg-bw/day) under setting [7] was 0.188.

On to `CCCCC[C@H](O)/C=C/[C@@H]1[C@H]2C/C(=C/CCCC(=O)O)O[C@H]2C[C@H]1O`, for which the maximum recommended daily dose (mmol/kg-bw/day) (TherapeuticCategory: platelet aggregation inhibitor) is 2.84e-08.

In the case of `CC(C)CCON=O`, the maximum recommended daily dose (mmol/kg-bw/day) (TherapeuticCategory: none) is 0.0427.

For `CC(COc1ccccc1)NC(C)C(O)c1ccc(O)cc1` (stereo not given), the maximum recommended daily dose (mmol/kg-bw/day) (TherapeuticCategory: vasodilator) was 0.00441.

Consider `C[C@](N)(Cc1ccc(O)cc1)C(=O)O`, for which the maximum recommended daily dose (mmol/kg-bw/day) (TherapeuticCategory: tyrosine hydroxylase inhibitor) was 0.342.

Take `C=CCC1(C(C)CCC)C(=O)N=C(O)NC1=O` (stereo not given): under setting [8], the maximum recommended daily dose (mmol/kg-bw/day) was 0.0128.

In the case of `COc1ccccc1OCC(O)CO` (stereo not given), for the setting “TherapeuticCategory: expectorant”, the maximum recommended daily dose (mmol/kg-bw/day) was 0.101.

With `CNC[C@H](O)[C@@H](O)[C@H](O)[C@H](O)CO`, for the setting “TherapeuticCategory: diagnostic aid”, the maximum recommended daily dose (mmol/kg-bw/day) is 0.512.

For the molecule `C=C1C[C@@H]2[C@H](CC[C@]3(C)C(=O)CC[C@@H]23)[C@@]2(C)C=CC(=O)C=C12`, the maximum recommended daily dose (mmol/kg-bw/day) under setting [9] was 0.00135.

With `C[C@]12CC[C@H]3[C@@H](CC=C4C[C@@H](O)CC[C@@]43C)[C@@H]1CC[C@@H]2O`, for the setting “TherapeuticCategory: anabolic”, the maximum recommended daily dose (mmol/kg-bw/day) is 0.00861.

As for `Nc1nc2c(c(=O)[nH]1)N(C=O)C(CNc1ccc(C(=O)NC(CCC(=O)O)C(=O)O)cc1)CN2` (stereo not given), the maximum recommended daily dose (mmol/kg-bw/day) (TherapeuticCategory: antidote to folic acid antagonists, antianemic) is 0.0114.

As to `C=CCN1CC[C@]23c4c5ccc(O)c4O[C@H]2[C@@H](O)C=C[C@H]3[C@H]1C5`, the maximum recommended daily dose (mmol/kg-bw/day) (TherapeuticCategory: narcotic antagonist) is 0.00214.

Consider `CN1c2ccccc2Sc2ccc(CC(=O)O)cc21`, for which the maximum recommended daily dose (mmol/kg-bw/day) under setting [6] is 0.0461.

Take `CCN(CC)CCNC(=O)c1ccc(N)cc1`: the maximum recommended daily dose (mmol/kg-bw/day) (TherapeuticCategory: antiarrhythmic) was 0.212.

On to `CCN(CC)CCNc1ccc(C)c2sc3ccccc3c(=O)c12`, for which, where the note is “TherapeuticCategory: antihelmintic”, the maximum recommended daily dose (mmol/kg-bw/day) was 0.0978.

Take `C=CCC1(C(C)CC)C(=O)NC(=O)NC1=O` (stereo not given): the maximum recommended daily dose (mmol/kg-bw/day) under setting [8] was 0.0148.

For the molecule `O=C(O)CCCc1ccc(N(CCCl)CCCl)cc1`, the maximum recommended daily dose (mmol/kg-bw/day) under setting [9] was 0.000657.

Turning to `NS(=O)(=O)c1cc(C2(O)NC(=O)c3ccccc32)ccc1Cl` (stereo not given), the maximum recommended daily dose (mmol/kg-bw/day) under setting [10] was 0.00246.

Turning to `CC(=O)Oc1ccc(C2(c3ccc(OC(C)=O)cc3)C(=O)Nc3ccccc32)cc1`, where the note is “TherapeuticCategory: cathartic”, the maximum recommended daily dose (mmol/kg-bw/day) is 0.00208.

As to `CN1c2cc(O)c(N=NC(N)=O)cc2CC1S(=O)(=O)O` (stereo not given), the maximum recommended daily dose (mmol/kg-bw/day) (TherapeuticCategory: hemostatic) is 0.00931.

With `COc1c(C)c2c(c(O)c1C/C=C(\C)CCC(=O)OCCN1CCOCC1)C(=O)OC2`, the maximum recommended daily dose (mmol/kg-bw/day) under setting [9] was 0.277.

`O=c1ccc2ccccc2o1`: the maximum recommended daily dose (mmol/kg-bw/day) (TherapeuticCategory: pharmaceutic aid) is 0.0114.

Turning to `O=C(c1ccc(F)cc1)C1CCN(CCn2c(=O)[nH]c3ccccc3c2=O)CC1`, under setting [4], the maximum recommended daily dose (mmol/kg-bw/day) is 0.00336.

In the case of `CCN(CC)Cc1cc(Nc2ccnc3cc(Cl)ccc23)ccc1O`, the maximum recommended daily dose (mmol/kg-bw/day) under setting [3] was 0.00936.

On to `CCc1oc2ccccc2c1C(=O)c1cc(Br)c(O)c(Br)c1`, for which the maximum recommended daily dose (mmol/kg-bw/day) (TherapeuticCategory: uricosuric) is 0.0118.

As to `N[C@@H](Cc1ccc(N(CCCl)CCCl)cc1)C(=O)O`, the maximum recommended daily dose (mmol/kg-bw/day) under setting [9] was 0.000328.

Consider `O=c1[nH]cc(F)c(=O)[nH]1`, for which the maximum recommended daily dose (mmol/kg-bw/day) under setting [9] is 0.0923.

As for `CCNC(C)Cc1cccc(C(F)(F)F)c1` (stereo not given), the maximum recommended daily dose (mmol/kg-bw/day) (TherapeuticCategory: anorexic) is 0.00865.

For `Cc1ccccc1C(OCCN(C)C)c1ccccc1` (stereo not given), for the setting “TherapeuticCategory: skeletal muscle relaxant, antihistiminic”, the maximum recommended daily dose (mmol/kg-bw/day) is 0.0248.

With `Cc1c(OCC(F)(F)F)ccnc1CS(=O)c1nc2ccccc2[nH]1` (stereo not given), where the note is “TherapeuticCategory: antiulcerative, anti infective”, the maximum recommended daily dose (mmol/kg-bw/day) was 0.00135.

As for `NS(=O)(=O)c1cc2c(cc1C(F)(F)F)NC(Cc1ccccc1)NS2(=O)=O` (stereo not given), under setting [10], the maximum recommended daily dose (mmol/kg-bw/day) was 0.00079.

As to `Cc1nccn1CC1CCc2c(c3ccccc3n2C)C1=O` (stereo not given), the maximum recommended daily dose (mmol/kg-bw/day) (TherapeuticCategory: antiemetic) was 0.00136.

Turning to `COc1cccc(OC)c1C(=O)N[C@@H]1C(=O)N2[C@@H]1SC(C)(C)[C@@H]2C(=O)O`, the maximum recommended daily dose (mmol/kg-bw/day) under setting [7] was 0.526.

Consider `C[N+]1(C)CCN(CC(O)(c2ccccc2)C2CCCCC2)CC1` (stereo not given), for which, under setting [5], the maximum recommended daily dose (mmol/kg-bw/day) was 0.0039.

Consider `COC(=O)C1=CCCN(C)C1`, for which the maximum recommended daily dose (mmol/kg-bw/day) (TherapeuticCategory: anthelmintic) is 0.000215.

With `C[C@H]1[C@H](NC(=O)/C(=N\OC(C)(C)C(=O)O)c2csc(N)n2)C(=O)N1S(=O)(=O)O`, the maximum recommended daily dose (mmol/kg-bw/day) under setting [7] is 0.305.

As for `CNC(=O)Oc1ccc2c(c1)[C@]1(C)CCN(C)[C@@H]1N2C`, the maximum recommended daily dose (mmol/kg-bw/day) (TherapeuticCategory: cholinergic, miotic) is 6.07e-05.

Consider `CCC1(C2=CCCCC2)C(=O)NC(=O)NC1=O`, for which the maximum recommended daily dose (mmol/kg-bw/day) under setting [8] was 0.0282.

As for `CC(=O)OCC(CCn1cnc2cnc(N)nc21)COC(C)=O`, the maximum recommended daily dose (mmol/kg-bw/day) (TherapeuticCategory: antiviral) was 0.0778.

In the case of `CC1(C)S[C@@H]2[C@H](NC(=O)[C@H](C(=O)O)c3ccsc3)C(=O)N2[C@H]1C(=O)O`, the maximum recommended daily dose (mmol/kg-bw/day) under setting [7] is 0.78.

As for `C[C@@H]1C[C@H]2[C@@H]3CCC4=CC(=O)C=C[C@]4(C)[C@@]3(Cl)[C@@H](O)C[C@]2(C)[C@@]1(OC(=O)c1ccco1)C(=O)CCl`, the maximum recommended daily dose (mmol/kg-bw/day) (TherapeuticCategory: topical anti inflammatory) is 2.88e-05.

On to `CN(C)CCCN1c2ccccc2C(C)(C)c2ccccc21`, for which the maximum recommended daily dose (mmol/kg-bw/day) (TherapeuticCategory: antidepressant) is 0.034.
